Assay [1] relates to cultured osteoblasts. In words: Collagen synthesis (4-hydroxyproline content). Format: cell-based, rat. The note with it: only at a higher concentration of 10 μM. Here is the method: von Kossa staining: Osteoblasts were cultured in DMEM containing 50 μg/ml vitamin C and 10 mM β-glycerophosphate for 2 weeks and the medium was changed every 3 days. To examine nodule formation, the cells were fixed in 4% paraformaldehyde for 10 min, rinsed with water, stained with 1% silver nitrate, placed under a UV lamp for 30 min and rinsed with water before treating with 5% sodium thiosulfate for 2 min. The cells were then washed twice with water and counterstained with 1% Safranin-O to visualize the matrix. The number of nodules formed per well was counted under a light microscope. Collagen synthesis was determined by measuring the 4-hydroxyproline content in cultured osteoblasts. Cells cultured in DMEM containing 50 μg/ml vitamin C and 10 mM β-glycerophosphate for 2 weeks were hydrolyzed in 6N HCl for 16 h at 116° C. After lyophilizing and reconstituting a lysate in distilled water, the amount of 4-hydroxyproline was determined by spectrophotometry at 550 nm as described by Berg (1982) Meth Enzymol. 82: 372–398.

Assay [2] has as its system α5 and β1 integrins. Briefly: Flow cytometry of surface expression of integrins. Format: cell-based, rat. Particulars: treatment for 24 hr. Here is the method:
Fibronectin (Fn) plays an important role in the regulation of adhesion, migration, and maturation of osteoblasts. Fn fibrillogenesis is involved in the process of bone mineralization. The effect of Indazole 1 on Fn fibrillogenesis in cultured osteoblasts was examined. The immobilized form of fibrillogenesis from the endogenously released Fn by monolayer Day 3˜5 osteoblasts was studied using immunocytochemistry. Incubation of Day-3 osteoblasts with Indazole 1 (10 μM) for 24 hr increased extracellular Fn assembly. Flow cytometry was used to analyze the effect of Indazole 1 on the surface expression of α5 and β1 integrins. […] On the other hand, the collagen synthesis was increased by Indazole 1 only at a higher concentration of 10 μM.
(In general: A flow cytometer gives signals particle by particle.)

Assay [3] relates to Osteoblasts. In words: Assay of cell proliferation (BrdU incorporation). The format is cell-based, rat. Here is the method:
Primary osteoblast cultures: Primary osteoblast cells were prepared from calvaria of 18-day-old fetal Sprague-Dawley (SD) rats according to the following method: Pregnant rats were put in anesthesia using intraperitoneal injection of trichloroacetaldehyde (200 mg/kg). The calvaria of the fetal rats were then dissected with aseptic technique. Soft tissues were removed under a dissecting microscope. The calvaria were divided into small pieces and then treated with 0.1% collagenase (Sigma Chemical, St. Louis, Mo.) solution for 10 minutes at 37° C. The cells released from the calvariae by two 20-minute sequential collagenase digestions were pooled and filtered through 70 μm nylon filters (Falcon, BD BioSciences, San Jose, Calif.). The cells were then grown on plastic cell culture dishes in 95:5 air-CO2 with Dulbecco's modified Eagle's medium (DMEM) (Gibco, Grand Island, N.Y.) which was supplemented with 20 mM HEPES and 10% heat-inactivated FCS, 2 mM-glutamine, penicillin (100 U/ml) and streptomycin (100 μg/ml) (pH adjusted to 7.6). The cell medium was changed twice a week. Osteoblasts were confirmed by morphology and expression of alkaline phosphatase (ALP). […] BrdU incorporation was assayed according to the protocol of enzyme-linked immunosorbent assay chemiluminescence detection kit (Roche Molecular Biochemicals) using a luminescence counter (TopCount; Packard Instruments, Meriden, Conn.). […]
In general terms: Dividing cells build labelled thymidine or BrdU into new DNA.

Assay [4] relates to Male SD rats. Briefly: Local injection into proximal tibia, bone histomorphometry (bone growth). The format is in vivo, rat. Here is the method:
Assay of bone resorption of osteoclast: Osteoclast precursors were isolated from rat long bones as mentioned above. The cells were re-suspended in a complete DMEM medium and plated into a calcium phosphate apatite-coated 24-well plate, OAAS (Oscotec, OCT USA Inc.) at 1×10^6 cells/0.5 ml/well. The cells were cultured for 5 days in the presence of M-CSF (20 ng/ml) plus sRANKL (50 ng/ml). Indazole 1 was injected daily for additional 3 days in the absence of M-CSF and sRANKL. Culture was terminated on day 8 and the remaining cells in the plate were lysed using 1 N NaOH. Five images per well were obtained using an inverted microscope (200×), and resorbed area was measured using an image analyzer. Local injection Male SD rats weighing 70–88 gm were used. Implantation of a cannula (22G) was done from the posteriolateral side into the proximal tibial metaphysis in both limbs of rats anesthetized with pentobarbital. The cannula had its outer end in the subcutaneous tissue. Indazole 1 was percutaneously injected through the cannula into the proximal tibia once/day for 1 week. The same concentration of DMSO diluted with normal saline was injected into the right side for comparison. On day 14, the rats were sacrificed and tibiae were fixed in 10% formaldehyde for 48 h at 4° C. Bone histomorphometry: After formalin fixation of tibia was completed, the tibiae were then decalcified in 0.5 N hydrochloric acid, dehydrated in an ascending series of ethanol solution and acetone, and embedded in paraffin. Serial sections (5 μm) were cut longitudinally and stained with Mayer's hematoxylin-eosin solution (Yang et al. (1993) Calcif Tissue Int 52:57–61). Images of the growth plate and proximal tibia were photographed using a photoMicroGraphic Digitize integrate System (MGDS; Total-Integra Technology Co., Ltd., Taipei, Taiwan). Bone volume measurements were performed on the whole secondary spongiosa, which is located under the primary spongiosa and characterized by a network of larger trabeculae. Bone volumes were calculated using an image analysis software. All measurements were done in a single-blind fashion. Bone growth: Male young rats (SD) weighing 70–90 gm were divided into six groups. The average weight of the rats in each group was 73.9±1.1 gm. Indazole 1 was dissolved in DMSO and diluted with saline to a final concentration of 10 μM. One of the six groups was a control group, and the other groups were punctuated with a needle cannula alone, injected with a vehicle using a needle cannula (day 1, once), injected with Indazole 1 (day 1, once), injected with a vehicle using a needle cannula (days 1–7, daily), and injected with Indazole 1 (days 1–7, daily), respectively. […] Trabecular bone in the secondary spongiosa increased by 90% after local injection of Indazole 1 for 7 days.

For `OCc1ccc(-c2nn(Cc3ccccc3)c3ccccc23)o1` [Indazole 1, 1-benzyl-3-(5′-hydroxymethyl-2′-furyl)-indazole], the collagen synthesis result in assay [1] is reported as “increased”. Besides, in assay [2], the “cell surface expression of α5 and β1 integrins” value is reported as “increased”. Further, the proliferation of osteoblasts is given as 119.3 % of control in assay [3] (0.1 μM) and 126.1 % of control in assay [3] (1 μM). Further, the “effect on tibia length” value in assay [4] (local injection) is on record as “not significantly affected”. Besides, the “Trabecular bone in the secondary spongiosa increased by” value in assay [4] (local injection for 7 days) is 90%. The “bone volume of the secondary spongiosa” value in assay [4] (local injection into proximal tibia, 0.1 nmole, daily for 7 days, then 7 further days, young male rats) was “significantly increased”. For the same molecule, the Tibia length in assay [4] (local injection, n=9) is recorded as 3.32±0.02 cm.

(Values after patent US7160916B2, “Method of increasing bone density or treating osteoporosis” (Yung Shin Pharmaceutical Ind. Co., Ltd., priority 2003, dated 2007).)
